Assay results as given in ChEMBL document CHEMBL1201862, “PubChem BioAssay data set” (2004).
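48-hour exposure; five concentrations; linearly interpolated endpoints. Abbreviation: GI50, concentration required for 50% inhibition of growth.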 The source made the active and inactive calls. No stated cut-off is given here; in the data, active = GI50 up to about 1.1 µM and inactive = higher.

Key:
Assay in all cases: NCI anticancer screen, dose series, 48 h
SK-MEL-5 = system: SK-MEL-5
MDA-MB-231 = system: MDA-MB-231
PC-3 = system: PC-3
U-251 = system: U-251
HCC 2998 = system: HCC 2998
IGROV-1 = system: IGROV-1
COLO 205 = system: COLO 205
DU-145 = system: DU-145
K562 = system: K562
T47D = system: T47D
SW-620 = system: SW-620
BT-549 = system: BT-549
EKVX = system: EKVX
NCI-H460 = system: NCI-H460
Malme-3M = system: Malme-3M
SK-MEL-2 = system: SK-MEL-2
HCT-15 = system: HCT-15
MOLT-4 = system: MOLT-4
CAKI-1 = system: CAKI-1
HOP-62 = system: HOP-62

| SMILES | GI50 (SK-MEL-5) | GI50 (MDA-MB-231) | GI50 (PC-3) | GI50 (U-251) | GI50 (HCC 2998) | GI50 (IGROV-1) | GI50 (COLO 205) | GI50 (DU-145) | GI50 (K562) | GI50 (T47D) | GI50 (SW-620) | GI50 (BT-549) | GI50 (EKVX) | GI50 (NCI-H460) | GI50 (Malme-3M) | GI50 (SK-MEL-2) | GI50 (HCT-15) [µM] | GI50 (MOLT-4) | GI50 (CAKI-1) | GI50 (HOP-62) |
| --- | --- | --- | --- | --- | --- | --- | --- | --- | --- | --- | --- | --- | --- | --- | --- | --- | --- | --- | --- | --- |
| O=c1[nH]nc(-c2ccccc2)n1/N=C/c1ccccc1O | 47.8 µM (inactive) | 70 µM (inactive) | 89.9 µM (inactive) | 41.6 µM (inactive) | > 100 µM (inactive) | 53 µM (inactive) | > 100 µM (inactive) | > 100 µM (inactive) | > 100 µM (inactive) | > 100 µM (inactive) | > 100 µM (inactive) | > 100 µM (inactive) | 67.9 µM (inactive) | > 100 µM (inactive) | 88.1 µM (inactive) | > 100 µM (inactive) | > 100 | > 100 µM (inactive) | > 100 µM (inactive) |  |
| CN(Cc1cccc2ccsc12)/N=C\c1ccc(Cl)cc1 | 15.5 µM (inactive) | > 100 µM (inactive) | > 100 µM (inactive) | > 100 µM (inactive) | 49.3 µM (inactive) | > 100 µM (inactive) | 74.8 µM (inactive) | > 100 µM (inactive) | 40.6 µM (inactive) | 49.5 µM (inactive) | 80.2 µM (inactive) | > 100 µM (inactive) | 50.4 µM (inactive) | > 100 µM (inactive) | > 100 µM (inactive) |  | 34.7 | 25.5 µM (inactive) | > 100 µM (inactive) | > 100 µM (inactive) |
| Cc1cc(OCc2nnc3n2S(=O)(=O)c2ccccc2N3C)ccc1Cl | 38.7 µM (inactive) | 16.3 µM (inactive) | 95.5 µM (inactive) | 18.6 µM (inactive) | > 100 µM (inactive) | 22.9 µM (inactive) | > 100 µM (inactive) | 56 µM (inactive) | 68.7 µM (inactive) | 18.5 µM (inactive) | > 100 µM (inactive) | 18.2 µM (inactive) | 33.1 µM (inactive) | 39.9 µM (inactive) |  | > 100 µM (inactive) | > 100 | 55 µM (inactive) | 28.8 µM (inactive) | 14.1 µM (inactive) |
| CCCC(CCN)(CCN)[N+](=O)[O-] | > 100 µM (inactive) | > 100 µM (inactive) | > 100 µM (inactive) | > 100 µM (inactive) |  | > 100 µM (inactive) | > 100 µM (inactive) | > 100 µM (inactive) | > 100 µM (inactive) | > 100 µM (inactive) | > 100 µM (inactive) | > 100 µM (inactive) | > 100 µM (inactive) | > 100 µM (inactive) | > 100 µM (inactive) | > 100 µM (inactive) | > 100 | > 100 µM (inactive) | > 100 µM (inactive) |  |
| COc1ccc(C(=O)/C=C/c2ccc(OCC(=O)O)cc2)cc1 | > 100 µM (inactive) | 59.2 µM (inactive) | > 100 µM (inactive) | 27.7 µM (inactive) | 27.7 µM (inactive) | > 100 µM (inactive) | 70.3 µM (inactive) | > 100 µM (inactive) | 39.4 µM (inactive) | 38.4 µM (inactive) | 41.5 µM (inactive) | 38.6 µM (inactive) | > 100 µM (inactive) |  | 50.7 µM (inactive) | 44.5 µM (inactive) | > 100 | 8.57 µM (inactive) | > 100 µM (inactive) | > 100 µM (inactive) |
| Cc1cccc(NC(=O)CC(=O)N2N=C(N3c4ccccc4Sc4ccccc43)CC2c2ccccc2)c1 (stereo unspecified) | > 100 µM (inactive) | > 100 µM (inactive) | > 100 µM (inactive) | > 100 µM (inactive) | > 100 µM (inactive) | > 100 µM (inactive) | > 100 µM (inactive) | > 100 µM (inactive) | > 100 µM (inactive) | > 100 µM (inactive) | > 100 µM (inactive) | > 100 µM (inactive) | > 100 µM (inactive) | > 100 µM (inactive) |  | > 100 µM (inactive) | > 100 | > 100 µM (inactive) |  | > 100 µM (inactive) |
| Oc1cc(O)cc(-c2nc3cc(F)ccc3s2)c1 | 17.5 µM (inactive) | 25.6 µM (inactive) | 25.1 µM (inactive) | 22.8 µM (inactive) |  | 27.7 µM (inactive) | 21 µM (inactive) | 32.8 µM (inactive) |  | 17.5 µM (inactive) | 38.1 µM (inactive) | 20.2 µM (inactive) |  | 22.8 µM (inactive) | 31.6 µM (inactive) | 22.7 µM (inactive) | 19.7 |  | 25.5 µM (inactive) |  |
| Nc1ccn(C2OC(COP(=O)(O)O)C(O)C2O)c(=O)n1 (stereo unspecified) | 16.6 µM (inactive) | > 100 µM (inactive) | > 100 µM (inactive) | 14.3 µM (inactive) | > 100 µM (inactive) | 40.7 µM (inactive) | > 55.3 µM (inactive) | 1.19 µM (inactive) | 24 µM (inactive) | 42 µM (inactive) | > 56.9 µM (inactive) | > 100 µM (inactive) | > 100 µM (inactive) | 0.32 µM (active) |  | > 100 µM (inactive) | 45.5 | 0.0497 µM (active) | 14.4 µM (inactive) | 0.951 µM (active) |
